PMC10820264, “Combining Experimental and Computational Methods to Produce Conjugates of Anticholinesterase and Antioxidant Pharmacophores with Linker Chemistries Affecting Biological Activities Related to Treatment of Alzheimer’s Disease” (Molecules, 2024)
Like-named read-outs stand apart in the source and are kept apart here. Marks after values point to notes of the source that are not given here.

How the values were obtained:
[1] = ABTS radical cation scavenging assay; conditions: for time to reach the activity level of Trolox in ABTS radical scavenging: compound at 20 μM (IC50 of Trolox); for ABTS•+-Scavenging Activity TEAC: Trolox equivalents
[2] = Ferric-reducing antioxidant power (FRAP) assay; conditions: Trolox equivalents
Porcine liver CES [3] = test system: Porcine liver CES; set-up: method as in PMID 33322783; conditions: cited from earlier work
[4] = target: T1, peripheral anionic site of Electrophorus electricus AChE (EeAChE) (Electrophorus electricus, UniProt O42275); set-up: method as in PMID 33322783; conditions: compound 20 μM; cited from earlier work
T1 sequence (O42275 24-633): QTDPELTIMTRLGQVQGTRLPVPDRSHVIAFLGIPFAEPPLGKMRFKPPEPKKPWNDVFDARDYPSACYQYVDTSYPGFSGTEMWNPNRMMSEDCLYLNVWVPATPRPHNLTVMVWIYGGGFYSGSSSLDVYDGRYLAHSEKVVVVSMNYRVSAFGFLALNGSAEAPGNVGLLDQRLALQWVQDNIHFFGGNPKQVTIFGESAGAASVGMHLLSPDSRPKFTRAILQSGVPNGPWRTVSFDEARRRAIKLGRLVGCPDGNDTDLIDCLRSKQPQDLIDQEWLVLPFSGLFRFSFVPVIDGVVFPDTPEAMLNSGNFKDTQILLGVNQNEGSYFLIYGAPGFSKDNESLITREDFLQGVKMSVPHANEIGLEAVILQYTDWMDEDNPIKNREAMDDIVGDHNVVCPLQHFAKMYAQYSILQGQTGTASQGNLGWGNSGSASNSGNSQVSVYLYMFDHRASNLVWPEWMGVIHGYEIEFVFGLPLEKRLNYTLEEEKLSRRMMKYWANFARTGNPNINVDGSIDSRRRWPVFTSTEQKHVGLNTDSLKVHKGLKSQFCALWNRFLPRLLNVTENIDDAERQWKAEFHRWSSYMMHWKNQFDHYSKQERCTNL

[5] = set-up: method as in PMID 33322783; conditions: Trolox equivalents; cited from earlier work
Human erythrocyte AChE = Human erythrocyte AChE (Homo sapiens, UniProt P22303); assay: biochemical; type: biochemical
Human erythrocyte AChE, sequence (P22303 other isoform, or with tags, fused parts or gaps): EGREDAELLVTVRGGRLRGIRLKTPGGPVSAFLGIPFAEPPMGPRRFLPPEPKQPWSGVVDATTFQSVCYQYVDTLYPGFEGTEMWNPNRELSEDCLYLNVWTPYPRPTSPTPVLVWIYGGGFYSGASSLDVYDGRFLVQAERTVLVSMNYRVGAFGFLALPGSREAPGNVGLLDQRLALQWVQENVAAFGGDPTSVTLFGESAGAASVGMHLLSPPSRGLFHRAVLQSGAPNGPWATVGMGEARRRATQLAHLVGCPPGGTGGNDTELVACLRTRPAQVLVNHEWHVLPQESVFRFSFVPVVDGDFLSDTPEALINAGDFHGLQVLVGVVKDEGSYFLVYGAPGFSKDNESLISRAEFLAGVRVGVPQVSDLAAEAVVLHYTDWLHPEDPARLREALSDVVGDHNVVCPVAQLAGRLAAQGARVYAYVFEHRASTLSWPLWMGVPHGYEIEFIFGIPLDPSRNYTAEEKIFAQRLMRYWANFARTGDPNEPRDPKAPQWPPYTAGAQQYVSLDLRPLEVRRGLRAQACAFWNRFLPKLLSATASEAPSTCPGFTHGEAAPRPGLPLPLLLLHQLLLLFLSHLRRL
Experimental: (§1) Human erythrocyte AChE and equine serum BChE were purchased from Milamed (Perm, Russia). Porcine liver CES, substrates, and reference compounds were from Sigma-Aldrich (St. Louis, MO, USA). The activity of enzymes was measured spectrophotometrically, as described in detail in [72] using ATCh iodide, BTCh iodide, and 4-NPA as substrates for AChE, BChE, and CES, respectively. Experimental conditions: K,Na—phosphate buffer (100 mM), 25 °C, pH 7.5 for AChE and BChE and pH 8.0 for CES assay. Measurements were carried out on a FLUOStar Optima microplate reader (BMG Labtech, Ortenberg, Germany).
(§2) Test compounds were dissolved in DMSO; the final concentration of solvent in the incubation mixture was 2% (v/v).

equine serum BChE = equine serum BChE (Equus caballus, UniProt P81908); assay: biochemical; type: biochemical
equine serum BChE, sequence (P81908 whole entry): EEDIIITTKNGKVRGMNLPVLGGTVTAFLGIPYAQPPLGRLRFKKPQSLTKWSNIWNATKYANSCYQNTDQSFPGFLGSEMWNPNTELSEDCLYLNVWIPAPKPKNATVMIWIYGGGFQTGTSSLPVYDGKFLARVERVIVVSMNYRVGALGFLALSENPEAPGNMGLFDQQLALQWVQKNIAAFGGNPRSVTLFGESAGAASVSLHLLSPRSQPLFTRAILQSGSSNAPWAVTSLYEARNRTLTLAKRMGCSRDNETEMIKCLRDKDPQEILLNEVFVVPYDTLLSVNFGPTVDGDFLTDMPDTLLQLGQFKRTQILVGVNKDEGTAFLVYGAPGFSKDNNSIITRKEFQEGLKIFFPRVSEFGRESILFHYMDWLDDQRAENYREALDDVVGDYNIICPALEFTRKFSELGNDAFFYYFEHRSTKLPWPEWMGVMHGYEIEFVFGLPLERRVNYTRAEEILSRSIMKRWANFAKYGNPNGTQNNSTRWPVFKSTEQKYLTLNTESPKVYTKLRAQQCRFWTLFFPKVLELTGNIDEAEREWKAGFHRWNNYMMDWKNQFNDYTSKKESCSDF
Experimental: as §1, §2

Porcine liver CES [6] = assay: CES inhibition, spectrophotometric, 4-NPA substrate; type: biochemical
Experimental: as §1
Test compounds were dissolved in DMSO; the final concentration of solvent in the incubation mixture was 2% (v/v). […]

[7] = target: T1, peripheral anionic site of Electrophorus electricus AChE (EeAChE); type: binding
Aβ42 = Aβ42 (Homo sapiens, UniProt P05067); assay: Inhibition of Aβ42 self-aggregation, thioflavin T fluorescence; type: biochemical; conditions: Aβ42 50 µM, compound 100 µM; for inhibition at 100 µM: read-out: Inhibition of Aβ42 Self-Aggregation
Aβ42, sequence (P05067 672-713): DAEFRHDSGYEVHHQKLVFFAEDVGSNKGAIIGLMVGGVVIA

[8] = test system: free radicals in mouse brain homogenate (TBHP-initiated); type: biochemical; conditions: read-out: Radical Scavenging Capacity, Luminol Chemiluminescence Assay IC50
AChE = AChE (Homo sapiens, UniProt P22303); assay: biochemical; type: biochemical; conditions: for Ki: read-out: AChE Ki (competitive inhibition constant)
AChE, sequence (P22303 other isoform, or with tags, fused parts or gaps): as the sequence (P22303 other isoform, or with tags, fused parts or gaps) above
Experimental: (§3) A mechanism of AChE and BChE inhibition was assessed by a detailed analysis of enzyme kinetics with three increasing concentrations of inhibitor and six substrate concentrations, as described in detail in [72].

eqBChE = eqBChE (Equus caballus, UniProt P81908); assay: biochemical; type: biochemical; conditions: for Ki: read-out: eqBChE Ki (competitive inhibition constant)
eqBChE, sequence (P81908 whole entry): as the sequence (P81908 whole entry) above
Experimental: as §3

[9] = test system: spontaneous lipid peroxidation in mouse brain homogenate; type: biochemical
[10] = read-out: Inhibition of Spontaneous Lipid Peroxidation in Mouse Brain Homogenate, TBARS Assay IC50

| Structure (SMILES) | IC50 [1] [µM] | Ferric-Reducing Antioxidant Power TE [2] | CES % inhibition at 20 μM (Porcine liver CES [3]) | Propidium Displacement [4] | ABTS•+-Scavenging Activity TEAC [5] | IC50 (Human erythrocyte AChE) [µM] | IC50 (equine serum BChE) [µM] | CES % inhibition at 20 μM (Porcine liver CES [6]) [%] | Propidium Displacement [7] [%] | inhibition at 100 µM (Aβ42) [%] | time to reach the activity level of Trolox in ABTS radical scavenging [1] | IC50 [8] [µM] | AChE αKi (non-competitive inhibition constant) (AChE) [nM] | Ki (AChE) [µM] | eqBChE αKi (non-competitive inhibition constant) (eqBChE) [nM] | Ki (eqBChE) [µM] | ABTS•+-Scavenging Activity TEAC [1] | IC50 [9, 10] [µM] | other results |
| --- | --- | --- | --- | --- | --- | --- | --- | --- | --- | --- | --- | --- | --- | --- | --- | --- | --- | --- | --- |
| CC(C)(C)c1cc(CNCCNc2c3c(nc4ccccc24)CCC3)cc(C(C)(C)C)c1O [16a] | 14.6 ± 0.8 | 0.57 ± 0.02 | 19.6 ± 1.3% ^a,*** | 16.4 ± 1.4 ^a % | 1.39 ± 0.05 ^a,*** | – | – | – | – | – | – | – | – | – | – | – | – | – | – |
| CC(C)(C)c1cc(CNCCCCCCCCNc2c3c(nc4ccccc24)CCCC3)cc(C(C)(C)C)c1O [17d, 2,6-Di-tert-butyl-4-{[8-(1,2,3,4-tetrahydro-acridin-9-ylamino)-octylamino]-methyl}-phenol] | 15.2 ± 0.7 | 0.57 ± 0.01 | – | – | – | 0.0151 ± 0.002 | 0.00756 ± 0.00042 | 23.6 ± 2.1 | 13.4 ± 1.2 | 71.4 ± 4.9 | less than 1 min | 11.3 ± 1.5 | – | – | – | – | – | – | AChE activity relative to tacrine (times more active) (Human erythrocyte AChE; vs tacrine): ~ 40 times |
| CC(C)(C)c1cc(CNCCNc2c3c(nc4ccccc24)CCCCC3)cc(C(C)(C)C)c1O [18a] | 15.3 ± 0.6 | 0.44 ± 0.06 | 26.0 ± 3.9% ^a,* | 13.6 ± 1.2 ^a % | 1.35 ± 0.06 ^a,*** | – | – | – | – | – | – | – | – | – | – | – | – | – | – |
| CC(C)(C)c1cc(CNCCCCCCNc2c3c(nc4ccccc24)CCCCC3)cc(C(C)(C)C)c1O [18c, 2,6-Di-tert-butyl-4-{[6-(7,8,9,10-tetrahydro-6H-cyclohepta[b]quinolin-11-ylamino)-hexylamino]-methyl}-phenol] | 21.6 ± 1.1 | 0.43 ± 0.02 | – | – | – | 0.103 ± 0.004 | 0.0149 ± 0.0003 | 16.8 ± 0.5 | 12.5 ± 0.9 | 47.8 ± 3.8 | – | 14.6 ± 0.8 | 101 ± 5 | 0.0831 ± 0.0014 | 17.3 ± 0.2 | 0.00783 ± 0.00076 | 1.00 ± 0.03 | 24.6 ± 2.8 | – |
| CC(C)(C)c1cc(CNCCCCCCCCNc2c3c(nc4ccccc24)CCCCC3)cc(C(C)(C)C)c1O [18d, 2,6-Di-tert-butyl-4-{[8-(7,8,9,10-tetrahydro-6H-cyclohepta[b]quinolin-11-ylamino)-octylamino]-methyl}-phenol] | 15.8 ± 0.6 | 0.45 ± 0.01 | – | – | – | 0.0308 ± 0.0002 | 0.00596 ± 0.00058 | 13.9 ± 1.2 | 12.3 ± 0.8 | 59.6 ± 4.7 | less than 1 min | 9.2 ± 0.6 | 25.1 ± 0.2 | 0.013 ± 0.001 | 6.06 ± 0.41 | 0.00425 ± 0.00033 | – | 20.2 ± 3.3 | BChE activity relative to tacrine (times more active) (equine serum BChE; vs tacrine): 5 times |
| Cc1cc(C(C)(C)C)c(O)c(C(C)(C)C)c1 [BHT, butylated hydroxytoluene, reference compound] | 22.4 ± 1.4 | 0.96 ± 0.02 | – | – | – | – | – | 5.6 ± 0.2 | – | – | – | 70.4 ± 4.1 | – | – | – | – | 0.98 ± 0.03 | 6.9 ± 0.3 | inhibition at 20 µM (Human erythrocyte AChE; read-out: AChE % inhibition at 20 μM): 6 ± 1.5%; inhibition at 20 µM (equine serum BChE; read-out: BChE % inhibition at 20 μM): 18.9 ± 1.7%; Inhibition of Aβ42 Self-Aggregation (Aβ42): not detectable; IC50 ([9]; read-out: Inhibition of spontaneous lipid peroxidation in mice brain homogenate (TBARS Assay) IC50): 7 µM |
